Test results reported in the NIST ThermoML archive (doi:10.1016/j.tca.2012.12.008).
Numbers after ± are expanded uncertainties.

Test: not given
Settings: 298.15 K; 101 kPa; Liquid; Capillary tube (Ostwald / Ubbelohde) method

First: CCCCCC(C)O (stereo not drawn) [2-heptanol]
Second: CCCCC(C)O (stereo not drawn) [2-hexanol]
The viscosity of the first is higher: 5.003 ± 0.037 mPa·s for the first, 4.101 ± 0.031 mPa·s for the second.

First: CCC(C)O (stereo not drawn) [butan-2-ol]
Second: CCCC(C)O (stereo not drawn) [pentan-2-ol]
The viscosity of the first is lower: 3.105 ± 0.023 mPa·s for the first, 3.478 ± 0.026 mPa·s for the second.

First: CCC(C)=O [butanone]
Second: CC(C)O [propan-2-ol]
The viscosity of the first is lower: 0.381 ± 0.004 mPa·s for the first, 2.055 ± 0.016 mPa·s for the second.

Same assay, conditions: 298.15 K; 101 kPa; Liquid; Vibrating tube method

Compared with `CCCCCC(C)O` (stereo not drawn) [2-heptanol], `CCCCC(C)O` (stereo not drawn) [2-hexanol] is lower in mass density: 813.18 ± 0.24 kg/m3 for the first, 810.14 ± 0.24 kg/m3 for the second.

Compared with `CCC(C)O` (stereo not drawn) [butan-2-ol], `CCCC(C)O` (stereo not drawn) [pentan-2-ol] is higher in mass density: 802.7 ± 0.24 kg/m3 for the first, 805.41 ± 0.24 kg/m3 for the second.

First: CCC(C)=O [butanone]
Second: CC(C)O [propan-2-ol]
The mass density of the first is higher: 799.48 ± 0.24 kg/m3 for the first, 781.09 ± 0.24 kg/m3 for the second.

Same assay, conditions: 303.15 K; 101 kPa; Liquid; Capillary tube (Ostwald / Ubbelohde) method

First: CCCCCC(C)O (stereo not drawn) [2-heptanol]
Second: CCCCC(C)O (stereo not drawn) [2-hexanol]
The viscosity of the first is higher: 4.152 ± 0.031 mPa·s for the first, 3.411 ± 0.026 mPa·s for the second.

First: CCC(C)O (stereo not drawn) [butan-2-ol]
Second: CCCC(C)O (stereo not drawn) [pentan-2-ol]
The viscosity of the first is lower: 2.597 ± 0.02 mPa·s for the first, 2.801 ± 0.021 mPa·s for the second.

Compared with `CCC(C)=O` [butanone], `CC(C)O` [propan-2-ol] is higher in viscosity: 0.368 ± 0.004 mPa·s for the first, 1.788 ± 0.014 mPa·s for the second.

Same assay, conditions: 303.15 K; 101 kPa; Liquid; Vibrating tube method

Compared with `CCCCCC(C)O` (stereo not drawn) [2-heptanol], `CCCCC(C)O` (stereo not drawn) [2-hexanol] is lower in mass density: 809.26 ± 0.24 kg/m3 for the first, 806.13 ± 0.24 kg/m3 for the second.

Going from `CCC(C)O` (stereo not drawn) [butan-2-ol] to `CCCC(C)O` (stereo not drawn) [pentan-2-ol], the mass density rises from 798.3 ± 0.24 kg/m3 to 801.21 ± 0.24 kg/m3.

Compared with `CCC(C)=O` [butanone], `CC(C)O` [propan-2-ol] is lower in mass density: 794.63 ± 0.24 kg/m3 for the first, 776.77 ± 0.24 kg/m3 for the second.

Same assay, conditions: 308.15 K; 101 kPa; Liquid; Capillary tube (Ostwald / Ubbelohde) method

Going from `CCCCCC(C)O` (stereo not drawn) [2-heptanol] to `CCCCC(C)O` (stereo not drawn) [2-hexanol], the viscosity falls from 3.478 ± 0.026 mPa·s to 2.819 ± 0.021 mPa·s.

Compared with `CCC(C)O` (stereo not drawn) [butan-2-ol], `CCCC(C)O` (stereo not drawn) [pentan-2-ol] is higher in viscosity: 2.153 ± 0.016 mPa·s for the first, 2.335 ± 0.018 mPa·s for the second.

Compared with `CCC(C)=O` [butanone], `CC(C)O` [propan-2-ol] is higher in viscosity: 0.352 ± 0.004 mPa·s for the first, 1.563 ± 0.012 mPa·s for the second.

Same assay, conditions: 308.15 K; 101 kPa; Liquid; Vibrating tube method

Compared with `CCCCCC(C)O` (stereo not drawn) [2-heptanol], `CCCCC(C)O` (stereo not drawn) [2-hexanol] is lower in mass density: 805.01 ± 0.24 kg/m3 for the first, 802.06 ± 0.24 kg/m3 for the second.

Compared with `CCC(C)O` (stereo not drawn) [butan-2-ol], `CCCC(C)O` (stereo not drawn) [pentan-2-ol] is higher in mass density: 793.57 ± 0.24 kg/m3 for the first, 796.64 ± 0.24 kg/m3 for the second.

Going from `CCC(C)=O` [butanone] to `CC(C)O` [propan-2-ol], the mass density falls from 789.9 ± 0.24 kg/m3 to 771.87 ± 0.24 kg/m3.

Same assay, conditions: 313.15 K; 101 kPa; Liquid; Capillary tube (Ostwald / Ubbelohde) method

Going from `CCCCCC(C)O` (stereo not drawn) [2-heptanol] to `CCCCC(C)O` (stereo not drawn) [2-hexanol], the viscosity falls from 2.853 ± 0.022 mPa·s to 2.219 ± 0.017 mPa·s.

First: CCC(C)O (stereo not drawn) [butan-2-ol]
Second: CCCC(C)O (stereo not drawn) [pentan-2-ol]
The viscosity of the first is lower: 1.734 ± 0.013 mPa·s for the first, 1.993 ± 0.015 mPa·s for the second.

First: CCC(C)=O [butanone]
Second: CC(C)O [propan-2-ol]
The viscosity of the first is lower: 0.339 ± 0.004 mPa·s for the first, 1.379 ± 0.011 mPa·s for the second.

Same assay, conditions: 313.15 K; 101 kPa; Liquid; Vibrating tube method

First: CCCCCC(C)O (stereo not drawn) [2-heptanol]
Second: CCCCC(C)O (stereo not drawn) [2-hexanol]
The mass density of the first is higher: 801.14 ± 0.24 kg/m3 for the first, 797.96 ± 0.24 kg/m3 for the second.

Compared with `CCC(C)O` (stereo not drawn) [butan-2-ol], `CCCC(C)O` (stereo not drawn) [pentan-2-ol] is higher in mass density: 789.15 ± 0.24 kg/m3 for the first, 792.51 ± 0.24 kg/m3 for the second.

First: CCC(C)=O [butanone]
Second: CC(C)O [propan-2-ol]
The mass density of the first is higher: 785.52 ± 0.24 kg/m3 for the first, 767.37 ± 0.24 kg/m3 for the second.

Test: xn = mol fraction of the nth substance listed
Settings: 298.15 K; 101 kPa; Liquid; Capillary tube (Ostwald / Ubbelohde) method; x1 = 1

For `CCC(C)=O` [butanone] + CCCC(C)O, the viscosity was 0.381 ± 0.004 mPa·s.
Molecule `CCC(C)=O` [butanone] + CCCCC(C)O has a viscosity of 0.381 ± 0.004 mPa·s.
Work on `CCC(C)=O` [butanone] + CCCCCC(C)O yielded a viscosity of 0.381 ± 0.004 mPa·s.

Same assay, conditions: 298.15 K; 101 kPa; Liquid; Capillary tube (Ostwald / Ubbelohde) method; x2 = 0

Going from `CCC(C)O` (stereo not drawn) [butan-2-ol] + CCC(C)=O to `CC(C)O` [propan-2-ol] + CCC(C)=O, the viscosity falls from 3.105 ± 0.023 mPa·s to 2.055 ± 0.016 mPa·s.

Same assay, conditions: 298.15 K; 101 kPa; Liquid; Vibrating tube method; x1 = 1

`CCC(C)=O` [butanone] + CCCC(C)O showed a mass density of 799.48 ± 0.24 kg/m3.
For `CCC(C)=O` [butanone] + CCCCC(C)O, the mass density was 799.48 ± 0.24 kg/m3.
With `CCC(C)=O` [butanone] + CCCCCC(C)O the mass density was 799.48 ± 0.24 kg/m3.

Same assay, conditions: 298.15 K; 101 kPa; Liquid; Vibrating tube method; x2 = 0

Compared with `CCC(C)O` (stereo not drawn) [butan-2-ol] + CCC(C)=O, `CC(C)O` [propan-2-ol] + CCC(C)=O is lower in mass density: 802.7 ± 0.24 kg/m3 for the first, 781.09 ± 0.24 kg/m3 for the second.

Same assay, conditions: 303.15 K; 101 kPa; Liquid; Capillary tube (Ostwald / Ubbelohde) method; x1 = 1

`CCC(C)=O` [butanone] + CCCC(C)O showed a viscosity of 0.368 ± 0.004 mPa·s.
`CCC(C)=O` [butanone] + CCCCC(C)O showed a viscosity of 0.368 ± 0.004 mPa·s.
In the case of `CCC(C)=O` [butanone] + CCCCCC(C)O, the viscosity is reported as 0.368 ± 0.004 mPa·s.

Same assay, conditions: 303.15 K; 101 kPa; Liquid; Capillary tube (Ostwald / Ubbelohde) method; x2 = 0

Compared with `CCC(C)O` (stereo not drawn) [butan-2-ol] + CCC(C)=O, `CC(C)O` [propan-2-ol] + CCC(C)=O is lower in viscosity: 2.597 ± 0.02 mPa·s for the first, 1.788 ± 0.014 mPa·s for the second.

Same assay, conditions: 303.15 K; 101 kPa; Liquid; Vibrating tube method; x1 = 1

`CCC(C)=O` [butanone] + CCCC(C)O showed a mass density of 794.63 ± 0.24 kg/m3.
`CCC(C)=O` [butanone] + CCCCC(C)O gave a mass density of 794.63 ± 0.24 kg/m3.
`CCC(C)=O` [butanone] + CCCCCC(C)O showed a mass density of 794.63 ± 0.24 kg/m3.

Same assay, conditions: 303.15 K; 101 kPa; Liquid; Vibrating tube method; x2 = 0

First: CCC(C)O (stereo not drawn) [butan-2-ol] + CCC(C)=O
Second: CC(C)O [propan-2-ol] + CCC(C)=O
The mass density of the first is higher: 798.3 ± 0.24 kg/m3 for the first, 776.77 ± 0.24 kg/m3 for the second.

Same assay, conditions: 308.15 K; 101 kPa; Liquid; Capillary tube (Ostwald / Ubbelohde) method; x1 = 1

In the case of `CCC(C)=O` [butanone] + CCCC(C)O, the viscosity is reported as 0.352 ± 0.004 mPa·s.
`CCC(C)=O` [butanone] + CCCCC(C)O showed a viscosity of 0.352 ± 0.004 mPa·s.
In the case of `CCC(C)=O` [butanone] + CCCCCC(C)O, the viscosity is reported as 0.352 ± 0.004 mPa·s.

Same assay, conditions: 308.15 K; 101 kPa; Liquid; Capillary tube (Ostwald / Ubbelohde) method; x2 = 0

Going from `CCC(C)O` (stereo not drawn) [butan-2-ol] + CCC(C)=O to `CC(C)O` [propan-2-ol] + CCC(C)=O, the viscosity falls from 2.153 ± 0.016 mPa·s to 1.563 ± 0.012 mPa·s.

Same assay, conditions: 308.15 K; 101 kPa; Liquid; Vibrating tube method; x1 = 1

Molecule `CCC(C)=O` [butanone] + CCCC(C)O has a mass density of 789.9 ± 0.24 kg/m3.
For `CCC(C)=O` [butanone] + CCCCC(C)O, the mass density was 789.9 ± 0.24 kg/m3.
With `CCC(C)=O` [butanone] + CCCCCC(C)O the mass density was 789.9 ± 0.24 kg/m3.

Same assay, conditions: 308.15 K; 101 kPa; Liquid; Vibrating tube method; x2 = 0

Going from `CCC(C)O` (stereo not drawn) [butan-2-ol] + CCC(C)=O to `CC(C)O` [propan-2-ol] + CCC(C)=O, the mass density falls from 793.57 ± 0.24 kg/m3 to 771.87 ± 0.24 kg/m3.

Same assay, conditions: 313.15 K; 101 kPa; Liquid; Capillary tube (Ostwald / Ubbelohde) method; x1 = 1

Molecule `CCC(C)=O` [butanone] + CCCC(C)O has a viscosity of 0.339 ± 0.004 mPa·s.
Molecule `CCC(C)=O` [butanone] + CCCCC(C)O has a viscosity of 0.339 ± 0.004 mPa·s.
Molecule `CCC(C)=O` [butanone] + CCCCCC(C)O has a viscosity of 0.339 ± 0.004 mPa·s.

Same assay, conditions: 313.15 K; 101 kPa; Liquid; Capillary tube (Ostwald / Ubbelohde) method; x2 = 0

First: CCC(C)O (stereo not drawn) [butan-2-ol] + CCC(C)=O
Second: CC(C)O [propan-2-ol] + CCC(C)=O
The viscosity of the first is higher: 1.734 ± 0.013 mPa·s for the first, 1.379 ± 0.011 mPa·s for the second.

Same assay, conditions: 313.15 K; 101 kPa; Liquid; Vibrating tube method; x1 = 1

Molecule `CCC(C)=O` [butanone] + CCCC(C)O has a mass density of 785.52 ± 0.24 kg/m3.
`CCC(C)=O` [butanone] + CCCCC(C)O gave a mass density of 785.52 ± 0.24 kg/m3.
Work on `CCC(C)=O` [butanone] + CCCCCC(C)O yielded a mass density of 785.52 ± 0.24 kg/m3.

Same assay, conditions: 313.15 K; 101 kPa; Liquid; Vibrating tube method; x2 = 0

Compared with `CCC(C)O` (stereo not drawn) [butan-2-ol] + CCC(C)=O, `CC(C)O` [propan-2-ol] + CCC(C)=O is lower in mass density: 789.15 ± 0.24 kg/m3 for the first, 767.37 ± 0.24 kg/m3 for the second.
